Assay results taken from patent US11236122B2, “Triterpene amine derivatives” (DFH THERAPEUTICS, priority 2018, dated 2022).
Counter-ions that a name gives are not always drawn.

Key:
pNL4-3 SP1-V7A = assay: CA-SP1 accumulation assay, SP1-V7A derivative; format: cell-based, HIV-1; details: HeLa or 293T cells; for % CA-SP1 Accumulation 100 nM SP1 V7A: 100 nM compound; for % CA-SP1 Accumulation 10 nM SP1 V7A: 10 nM compound
Procedure: (§1) Cell culture, plasmids and transfections. The MT-4 T-cell line was maintained in RPMI-1640 medium supplemented with 10% (vol/vol) fetal bovine serum (FBS), 2 mM glutamine, 100 U/mL penicillin and 100 μg/mL streptomycin at 37° C. in a humidified 5% CO2 atmosphere. HeLa and 293T cells were maintained in Dulbecco's modified Eagle's medium (DMEM) supplemented with 5% (vol/vol) FBS, 2 mM glutamine, 100 U/mL penicillin and 100 μg/mL streptomycin. Molecular clones used in this study were WT pNL4-3 and the derivative encoding a Val-to-Ala mutation at SP1 residue 7, referred to as SP1-V7A. The MT-4 T-cell line was transfected the DEAE/dextran procedure; HeLa and 293T cells were transfected with linear polyethylenimine (L-PEI) or Lipofectamine 2000 (Invitrogen) as recommended by the supplier.
(§2) CA-SP1 accumulation assay. For CA-SP1 accumulation assays, HeLa or 293T cells were transfected with WT pNL4-3 or the SP1-V7A derivative. At 24 h post-transfection, cells were starved in Met/Cys-free medium for 30 min and metabolically labeled with [^35S]Met/Cys-Pro-mix (Amersham) for 2-3 h. Maturation inhibitors were maintained in the cultures throughout the transfection and labeling period. Viruses were collected by ultracentrifugation at 99,000×g for 45-60 min. Virus pellets were resuspended in Triton X-100 lysis buffer [300 mM NaCl, 50 mM Tris-HCl (pH 7.5), 0.5% Triton X-100, 10 mM iodoacetamide, and protease inhibitor cocktail tablets (Roche)]. CA and CA-SP1 proteins were separated on 13.5-15% polyacrylamide gels by SDS-polyacrylamide gel electrophoresis, exposed to a phosphorimager plate (Fuji) and quantified by Quantity One software (Bio-Rad).

WT pNL4-3 = assay: CA-SP1 accumulation assay, WT NL4-3; format: cell-based, HIV-1; details: HeLa or 293T cells; for % CA-SP1 Accumulation 100 nM NL4-3: 100 nM compound; for % CA-SP1 Accumulation 10 nM NL4-3: 10 nM compound
Procedure: as §1, §2

C=C(C)[C@@H]1CC[C@]2(CCNCCCN3CCCC3=O)CC[C@]3(C)[C@H](CC[C@@H]4[C@@]5(C)CC[C@H](OC(=O)CC(C)(C)CC(=O)O)C(C)(C)[C@@H]5CC[C@]43C)[C@@H]12 [Compound 51a, (3β)-17-[2-[[3-(2-Oxopyrrolidin-1-yl)propyl]amino]ethyl]-28-norlup-20(29)-en-3-ol, 3-(Hydrogen 3,3-Dimethylpentanedioate)]
% CA-SP1 Accumulation 100 nM SP1 V7A (pNL4-3 SP1-V7A): 18.0% | % CA-SP1 Accumulation 100 nM NL4-3 (WT pNL4-3): 62.0%

C=C(C)[C@@H]1CC[C@]2(CCCNCCCN3CCCC3)CC[C@]3(C)[C@H](CC[C@@H]4[C@@]5(C)CC[C@H](OC(=O)CC(C)(C)C(=O)O)C(C)(C)[C@@H]5CC[C@]43C)[C@@H]12 [Compound 51aa, (3β)-17-[3-[[3-(1-Pyrrolidinyl)propyl]amino]propyl]-28-norlup-20(29)-en-3-ol, 3-(1-Hydrogen 2,2-Dimethylbutanedioate) Sulfate]
% CA-SP1 Accumulation 10 nM SP1 V7A (pNL4-3 SP1-V7A): 5.3% | % CA-SP1 Accumulation 100 nM SP1 V7A (pNL4-3 SP1-V7A): 14.4% | % CA-SP1 Accumulation 10 nM NL4-3 (WT pNL4-3): 12.5% | % CA-SP1 Accumulation 100 nM NL4-3 (WT pNL4-3): 45.2%

C=C(C)[C@@H]1CC[C@]2(CCNCCC(=O)N3CCN(C)CC3)CC[C@]3(C)[C@H](CC[C@@H]4[C@@]5(C)CC[C@H](OC(=O)CC(C)(C)CC(=O)O)C(C)(C)[C@@H]5CC[C@]43C)[C@@H]12 [Compound 51b, (3β)-17-[2-[[3-(4-Methylpiperazin-1-yl)-3-oxopropyl]amino]ethyl]-28-norlup-20(29)-en-3-ol, 3-(Hydrogen 3,3-Dimethylpentanedioate)]
% CA-SP1 Accumulation 100 nM SP1 V7A (pNL4-3 SP1-V7A): 21.0% | % CA-SP1 Accumulation 100 nM NL4-3 (WT pNL4-3): 58.0%

C=C(C)[C@@H]1CC[C@]2(CCCNCCN3CCN(Cc4ccccc4)CC3)CC[C@]3(C)[C@H](CC[C@@H]4[C@@]5(C)CC[C@H](OC(=O)CC(C)(C)C(=O)O)C(C)(C)[C@@H]5CC[C@]43C)[C@@H]12 [Compound 51bb, (3β)-17-[3-[[2-[4-(Phenylmethyl)piperazin-1-yl]ethyl]amino]propyl]-28-norlup-20(29)-en-3-ol, 3-(1-Hydrogen 2,2-Dimethylbutanedioate) Sesquisulfate]
% CA-SP1 Accumulation 10 nM SP1 V7A (pNL4-3 SP1-V7A): 4.8% | % CA-SP1 Accumulation 100 nM SP1 V7A (pNL4-3 SP1-V7A): 3.7% | % CA-SP1 Accumulation 10 nM NL4-3 (WT pNL4-3): 5.8% | % CA-SP1 Accumulation 100 nM NL4-3 (WT pNL4-3): 8.4%

C=C(C)[C@@H]1CC[C@]2(CCNCCCN3CCN(S(C)(=O)=O)CC3)CC[C@]3(C)[C@H](CC[C@@H]4[C@@]5(C)CC[C@H](OC(=O)CC(C)(C)CC(=O)O)C(C)(C)[C@@H]5CC[C@]43C)[C@@H]12 [Compound 51c, (3β)-17-[2-[[3-[4-(Methylsulfonyl)piperazin-1-yl]propyl]amino]ethyl]-28-norlup-20(29)-en-3-ol, 3-(Hydrogen 3,3-Dimethylpentanedioate)]
% CA-SP1 Accumulation 100 nM SP1 V7A (pNL4-3 SP1-V7A): 29.2 (3) % | % CA-SP1 Accumulation 100 nM NL4-3 (WT pNL4-3): 72.9 (3) %

C=C(C)[C@@H]1CC[C@]2(CCCNCCN3CCN(S(C)(=O)=O)CC3)CC[C@]3(C)[C@H](CC[C@@H]4[C@@]5(C)CC[C@H](OC(=O)CC(C)(C)C(=O)O)C(C)(C)[C@@H]5CC[C@]43C)[C@@H]12 [Compound 51cc, (3β)-17-[3-[[2-[4-(Methylsulfonyl)piperazin-1-yl]ethyl]amino]propyl]-28-norlup-20(29)-en-3-ol, 3-(1-Hydrogen 2,2-Dimethylbutanedioate) Sesquisulfate]
% CA-SP1 Accumulation 10 nM SP1 V7A (pNL4-3 SP1-V7A): 12.5% | % CA-SP1 Accumulation 100 nM SP1 V7A (pNL4-3 SP1-V7A): 19.3% | % CA-SP1 Accumulation 10 nM NL4-3 (WT pNL4-3): 26.0% | % CA-SP1 Accumulation 100 nM NL4-3 (WT pNL4-3): 58.4%

C=C(C)[C@@H]1CC[C@]2(CCNCCCN3CCN(CCO)CC3)CC[C@]3(C)[C@H](CC[C@@H]4[C@@]5(C)CC[C@H](OC(=O)CC(C)(C)CC(=O)O)C(C)(C)[C@@H]5CC[C@]43C)[C@@H]12 [Compound 51d, (3β)-17-[2-[[3-[4-(2-Hydroxyethyl)piperazin-1-yl]propyl]amino]ethyl]-28-norlup-20(29)-en-3-ol, 3-(Hydrogen 3,3-Dimethylpentanedioate)]
% CA-SP1 Accumulation 100 nM SP1 V7A (pNL4-3 SP1-V7A): 20.4 (3) % | % CA-SP1 Accumulation 100 nM NL4-3 (WT pNL4-3): 71.6 (3) %

C=C(C)[C@@H]1CC[C@]2(CCCNCCN3CCS(=O)(=O)CC3)CC[C@]3(C)[C@H](CC[C@@H]4[C@@]5(C)CC[C@H](OC(=O)CC(C)(C)C(=O)O)C(C)(C)[C@@H]5CC[C@]43C)[C@@H]12 [Compound 51dd, (3β)-17-[[[3-[2-(1,1-Dioxothiomorpholin-4-yl)]Ethyl]Amino]Propyl]-28-norlup-20(29)-en-3-ol, 3-(1-Hydrogen 2,2-Dimethylbutanedioate) Sulfate]
% CA-SP1 Accumulation 10 nM SP1 V7A (pNL4-3 SP1-V7A): 5.9% | % CA-SP1 Accumulation 100 nM SP1 V7A (pNL4-3 SP1-V7A): 7.3% | % CA-SP1 Accumulation 10 nM NL4-3 (WT pNL4-3): 8.2% | % CA-SP1 Accumulation 100 nM NL4-3 (WT pNL4-3): 9.7%

C=C(C)[C@@H]1CC[C@]2(CCNCCCN3CCN(CCOC)CC3)CC[C@]3(C)[C@H](CC[C@@H]4[C@@]5(C)CC[C@H](OC(=O)CC(C)(C)CC(=O)O)C(C)(C)[C@@H]5CC[C@]43C)[C@@H]12 [Compound 51e, (3β)-17-[2-[[3-[4-(2-Methoxyethyl)piperazin-1-yl]propyl]amino]ethyl]-28-norlup-20(29)-en-3-ol, 3-(Hydrogen 3,3-Dimethylpentanedioate)]
% CA-SP1 Accumulation 100 nM SP1 V7A (pNL4-3 SP1-V7A): 23.1 (3) % | % CA-SP1 Accumulation 100 nM NL4-3 (WT pNL4-3): 70.4 (3) %

C=C(C)[C@@H]1CC[C@]2(CCNCCN3CCC(S(C)(=O)=O)CC3)CC[C@]3(C)[C@H](CC[C@@H]4[C@@]5(C)CC[C@H](OC(=O)CC(C)(C)C(=O)O)C(C)(C)[C@@H]5CC[C@]43C)[C@@H]12 [Compound 51gg, (3β)-17-[2-[[2-[4-(Methylsulfonyl)piperidin-1-yl]ethyl]amino]ethyl]-28-norlup-20(29)-en-3-ol, 3-(1-Hydrogen 2,2-Dimethylbutanedioate)]
% CA-SP1 Accumulation 10 nM SP1 V7A (pNL4-3 SP1-V7A): 30.9% | % CA-SP1 Accumulation 10 nM NL4-3 (WT pNL4-3): 57.7%

CC(C)(CC(=O)O[C@H]1CC[C@]2(C)[C@H]3CC[C@@H]4[C@H]5[C@H](C6(C)CC6)CC[C@]5(CCNCCN5CCCC5)CC[C@@]4(C)[C@]3(C)CC[C@H]2C1(C)C)C(=O)O [Compound 51h, (3β)-17-[2-[[2-(1-Pyrrolidinyl)ethyl]amino]ethyl]-20,29-methano-28-norlupan-3-ol, 3-(1-Hydrogen 2,2-Dimethylbutanedioate)]
% CA-SP1 Accumulation 100 nM SP1 V7A (pNL4-3 SP1-V7A): 20.1% | % CA-SP1 Accumulation 100 nM NL4-3 (WT pNL4-3): 70.1%

CN1CCN(CCCNCC[C@]23CC[C@@H](C4(C)CC4)[C@@H]2[C@H]2CC[C@@H]4[C@@]5(C)CC[C@H](OC(=O)CC(C)(C)C(=O)O)C(C)(C)[C@@H]5CC[C@@]4(C)[C@]2(C)CC3)CC1 [Compound 51i, (3β)-17-[2-[[3-(4-Methylpiperazin-1-yl)propyl]amino]ethyl]-20,29-methano-28-norlupan-3-ol, 3-(1-Hydrogen 2,2-Dimethylbutanedioate)]
% CA-SP1 Accumulation 100 nM SP1 V7A (pNL4-3 SP1-V7A): 22.0% | % CA-SP1 Accumulation 100 nM NL4-3 (WT pNL4-3): 71.9%

C=C(C)[C@@H]1CC[C@]2(CCNCCN3CCC(O)CC3)CC[C@]3(C)[C@H](CC[C@@H]4[C@@]5(C)CC[C@H](OC(=O)CC(C)(C)C(=O)O)C(C)(C)[C@@H]5CC[C@]43C)[C@@H]12 [Compound 51ii, (3β)-17-[2-[[2-(4-Hydroxypiperidin-1-yl)ethyl]amino]ethyl]-28-norlup-20(29)-en-3-ol, 3-(1-Hydrogen 2,2-Dimethylbutanedioate)]
% CA-SP1 Accumulation 10 nM SP1 V7A (pNL4-3 SP1-V7A): 29.5 (3) % | % CA-SP1 Accumulation 10 nM NL4-3 (WT pNL4-3): 70.1%
